# According to PubChem BioAssay (NCI):
#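 A five-concentration, 48-hour dose response in 96-well plates underlies each endpoint, interpolated linearly between surrounding concentrations. The concentration for 50% growth inhibition is given as GI50. TGI: concentration producing complete growth inhibition.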
# What was measured:
# Assay in all cases: NCI tumour cell line growth inhibition, 48 h
# 786-0 renal = tested on: 786-0 renal
# A498 renal = tested on: A498 renal
# A549 NSCLC = tested on: A549 NSCLC
# ACHN renal = tested on: ACHN renal
# CAKI-1 renal = tested on: CAKI-1 renal
# CCRF-CEM leukemia = tested on: CCRF-CEM leukemia
# COLO 205 colon = tested on: COLO 205 colon
# DLD-1 colon = tested on: DLD-1 colon
# DMS 114 small cell lung = tested on: DMS 114 small cell lung
# EKVX NSCLC = tested on: EKVX NSCLC
# HCC-2998 colon = tested on: HCC-2998 colon
# HCT-116 colon = tested on: HCT-116 colon
# HCT-15 colon = tested on: HCT-15 colon
# HOP-18 NSCLC = tested on: HOP-18 NSCLC
# HOP-62 NSCLC = tested on: HOP-62 NSCLC
# HOP-92 NSCLC = tested on: HOP-92 NSCLC
# HT29 colon = tested on: HT29 colon
# IGROV1 ovarian = tested on: IGROV1 ovarian
# K-562 leukemia = tested on: K-562 leukemia
# KM12 colon = tested on: KM12 colon
# KM20L2 colon = tested on: KM20L2 colon
# LOX IMVI melanoma = tested on: LOX IMVI melanoma
# M14 melanoma = tested on: M14 melanoma
# M19-MEL melanoma = tested on: M19-MEL melanoma
# MALME-3M melanoma = tested on: MALME-3M melanoma
# MOLT-4 leukemia = tested on: MOLT-4 leukemia
# NCI-H226 lung = tested on: NCI-H226 lung
# NCI-H23 lung = tested on: NCI-H23 lung
# NCI-H460 lung = tested on: NCI-H460 lung
# NCI-H522 lung = tested on: NCI-H522 lung
# OVCAR-3 ovarian = tested on: OVCAR-3 ovarian
# OVCAR-4 ovarian = tested on: OVCAR-4 ovarian
# OVCAR-5 ovarian = tested on: OVCAR-5 ovarian
# OVCAR-8 ovarian = tested on: OVCAR-8 ovarian
# RXF 393 renal = tested on: RXF 393 renal
# SF-268 CNS = tested on: SF-268 CNS
# SF-295 CNS = tested on: SF-295 CNS
# SF-539 CNS = tested on: SF-539 CNS
# SK-MEL-2 melanoma = tested on: SK-MEL-2 melanoma
# SK-MEL-28 melanoma = tested on: SK-MEL-28 melanoma
# SK-MEL-5 melanoma = tested on: SK-MEL-5 melanoma
# SK-OV-3 ovarian = tested on: SK-OV-3 ovarian
# SN12C renal = tested on: SN12C renal
# SNB-19 CNS = tested on: SNB-19 CNS
# SNB-75 CNS = tested on: SNB-75 CNS
# SNB-78 CNS = tested on: SNB-78 CNS
# SR leukemia = tested on: SR leukemia
# SW-620 colon = tested on: SW-620 colon
# TK-10 renal = tested on: TK-10 renal
# U251 CNS = tested on: U251 CNS
# UACC-257 melanoma = tested on: UACC-257 melanoma
# UACC-62 melanoma = tested on: UACC-62 melanoma
# UO-31 renal = tested on: UO-31 renal
smiles,measurement,setting,value
CC(=O)[CH-]C(=O)Nc1ccccc1.CC(=O)[CH-]C(=O)Nc1ccccc1.CC[O-].CC[O-].[Ti+4],GI50,786-0 renal,> 100 µM
same,TGI,786-0 renal,> 100 µM
same,GI50,A498 renal,> 100 µM
same,TGI,A498 renal,> 100 µM
same,GI50,A549 NSCLC,> 100 µM
same,TGI,A549 NSCLC,> 100 µM
same,GI50,ACHN renal,> 100 µM
same,TGI,ACHN renal,> 100 µM
same,GI50,CAKI-1 renal,> 100 µM
same,TGI,CAKI-1 renal,> 100 µM
same,GI50,CCRF-CEM leukemia,> 100 µM
same,TGI,CCRF-CEM leukemia,> 100 µM
same,GI50,COLO 205 colon,> 100 µM
same,TGI,COLO 205 colon,> 100 µM
same,GI50,DLD-1 colon,> 100 µM
same,TGI,DLD-1 colon,> 100 µM
same,GI50,DMS 114 small cell lung,> 100 µM
same,TGI,DMS 114 small cell lung,> 100 µM
same,GI50,EKVX NSCLC,> 100 µM
same,TGI,EKVX NSCLC,> 100 µM
same,GI50,HCC-2998 colon,> 100 µM
same,TGI,HCC-2998 colon,> 100 µM
same,GI50,HCT-116 colon,> 100 µM
same,TGI,HCT-116 colon,> 100 µM
same,GI50,HCT-15 colon,> 100 µM
same,TGI,HCT-15 colon,> 100 µM
same,GI50,HOP-18 NSCLC,> 100 µM
same,TGI,HOP-18 NSCLC,> 100 µM
same,GI50,HOP-62 NSCLC,> 100 µM
same,TGI,HOP-62 NSCLC,> 100 µM
same,GI50,HOP-92 NSCLC,> 100 µM
same,TGI,HOP-92 NSCLC,> 100 µM
same,GI50,HT29 colon,> 100 µM
same,TGI,HT29 colon,> 100 µM
same,GI50,IGROV1 ovarian,> 100 µM
same,TGI,IGROV1 ovarian,> 100 µM
same,GI50,K-562 leukemia,> 100 µM
same,TGI,K-562 leukemia,> 100 µM
same,GI50,KM12 colon,> 100 µM
same,TGI,KM12 colon,> 100 µM
same,GI50,KM20L2 colon,> 100 µM
same,TGI,KM20L2 colon,> 100 µM
same,GI50,LOX IMVI melanoma,> 100 µM
same,TGI,LOX IMVI melanoma,> 100 µM
same,GI50,M14 melanoma,> 100 µM
same,TGI,M14 melanoma,> 100 µM
same,GI50,M19-MEL melanoma,> 100 µM
same,TGI,M19-MEL melanoma,> 100 µM
same,GI50,MALME-3M melanoma,> 100 µM
same,TGI,MALME-3M melanoma,> 100 µM
same,GI50,MOLT-4 leukemia,> 100 µM
same,TGI,MOLT-4 leukemia,> 100 µM
same,GI50,NCI-H226 lung,> 100 µM
same,TGI,NCI-H226 lung,> 100 µM
same,GI50,NCI-H23 lung,> 100 µM
same,TGI,NCI-H23 lung,> 100 µM
same,GI50,NCI-H460 lung,> 100 µM
same,TGI,NCI-H460 lung,> 100 µM
same,GI50,NCI-H522 lung,> 100 µM
same,TGI,NCI-H522 lung,> 100 µM
same,GI50,OVCAR-3 ovarian,> 100 µM
same,TGI,OVCAR-3 ovarian,> 100 µM
same,GI50,OVCAR-4 ovarian,> 100 µM
same,TGI,OVCAR-4 ovarian,> 100 µM
same,GI50,OVCAR-5 ovarian,> 100 µM
same,TGI,OVCAR-5 ovarian,> 100 µM
same,GI50,OVCAR-8 ovarian,> 100 µM
same,TGI,OVCAR-8 ovarian,> 100 µM
same,GI50,RXF 393 renal,> 100 µM
same,TGI,RXF 393 renal,> 100 µM
same,GI50,SF-268 CNS,> 100 µM
same,TGI,SF-268 CNS,> 100 µM
same,GI50,SF-295 CNS,> 100 µM
same,TGI,SF-295 CNS,> 100 µM
same,GI50,SF-539 CNS,> 100 µM
same,TGI,SF-539 CNS,> 100 µM
same,GI50,SK-MEL-2 melanoma,> 100 µM
same,TGI,SK-MEL-2 melanoma,> 100 µM
same,GI50,SK-MEL-28 melanoma,> 100 µM
same,TGI,SK-MEL-28 melanoma,> 100 µM
same,GI50,SK-MEL-5 melanoma,> 100 µM
same,TGI,SK-MEL-5 melanoma,> 100 µM
same,GI50,SK-OV-3 ovarian,> 100 µM
same,TGI,SK-OV-3 ovarian,> 100 µM
same,GI50,SN12C renal,> 100 µM
same,TGI,SN12C renal,> 100 µM
same,GI50,SNB-19 CNS,> 100 µM
same,TGI,SNB-19 CNS,> 100 µM
same,GI50,SNB-75 CNS,61.2 µM
same,TGI,SNB-75 CNS,> 100 µM
same,GI50,SNB-78 CNS,> 100 µM
same,TGI,SNB-78 CNS,> 100 µM
same,GI50,SR leukemia,> 100 µM
same,TGI,SR leukemia,> 100 µM
same,GI50,SW-620 colon,> 100 µM
same,TGI,SW-620 colon,> 100 µM
same,GI50,TK-10 renal,> 100 µM
same,TGI,TK-10 renal,> 100 µM
same,GI50,U251 CNS,> 100 µM
same,TGI,U251 CNS,> 100 µM
same,GI50,UACC-257 melanoma,> 100 µM
same,TGI,UACC-257 melanoma,> 100 µM
same,GI50,UACC-62 melanoma,> 100 µM
same,TGI,UACC-62 melanoma,> 100 µM
same,GI50,UO-31 renal,> 100 µM
same,TGI,UO-31 renal,> 100 µM
